Where two headings read alike, the source gives them in different places.
Tests used:
Format in all cases: in vivo
Phakopsora pachyrhizi = experiment: Fungicidal activity: Asian soybean rust (PHAKPA); settings: 25 ppm; for Disease Control PHAKPA 1DP: 1 Day Protectant; for Disease Control PHAKPA 3DC: 3 Day Curative
Description: Evaluation of Fungicidal Activity: Asian Soybean Rust (Phakopsora pachyrhizi; Bayer Code […]) Technical grades of materials were dissolved in acetone, which were then mixed with nine volumes of water containing 0.011% Tween 20. The fungicide solutions were applied onto soybean seedlings using an automated booth sprayer to run-off. All sprayed plants were allowed to air dry prior to further handling. Soybean plants (variety Williams 82) were grown in soil-less Metro mix, with one plant per pot. Two weeks old seedlings were used for testing. […] Plants were incubated for 24 h in a dark dew room at 22° C. and 100% RH then transferred to a growth room at 23° C. for disease to develop. Disease severity was assessed on the sprayed leaves.

Rhyncosporium secalis = experiment: Fungicidal activity: barley scald (RHYNSE); settings: 100 ppm, 1 Day Protectant
Description: Technical grades of materials were dissolved in acetone, which were then mixed with nine volumes of water containing 110 ppm Triton X-100. The fungicide solutions were applied onto wheat seedlings using an automated booth sprayer to run-off. All sprayed plants were allowed to air dry prior to further handling. Wheat plants (variety Yuma) were grown from seed in a greenhouse in 50% mineral soil/50% soil-less Metro mix until the first leaf was fully emerged, with 7-10 seedlings per pot. These plants were inoculated with an aqueous spore suspension of Septoria tritici either prior to or after fungicide treatments. After inoculation the plants were kept in 100% relative humidity (one day in a dark dew chamber followed by two to three days in a lighted dew chamber at 20° C.) to permit spores to germinate and infect the leaf. The plants were then transferred to a greenhouse set at 20° C. for disease to develop. When disease symptoms were fully expressed on the 1st leaves of untreated plants, infection levels were assessed on a scale of 0 to 100 percent disease severity. Percent disease control was calculated using the ratio of disease severity on treated plants relative to untreated plants. Evaluation of Fungicidal Activity: Barley Scald (Rhyncosporium secalis; Bayer Code […]) Barley seedlings (variety Harrington) were propagated in soil-less Metro mix, with each pot having 8 to 12 plants, and used in the test when first leaf was fully emerged. Test plants were inoculated by an aqueous spore suspension of Rhyncosporium secalis 24 hr after fungicide treatments. After inoculation the plants were kept in a dew room at 20° C. with 100% relative humidity for 48 hr. The plants were then transferred to a greenhouse set at 20° C. for disease to develop. Fungicide formulation, application and disease assessment on the sprayed leaves followed the procedures as described in the Example A.

[1] = tested on: Puccinia triticina; synonym: Puccinia recondita f. sp. tritici; experiment: Fungicide mobility (dropline mobility test): wheat brown rust (PUCCRT); settings: 1 ug/leaf
In short: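 A 2 μl drop of formulated compound (EC blank, 110 ppm Triton X-100 water) was applied to a line 5 cm from the tip of primary leaves of "Yuma" wheat seedlings, 6 replicates. Inoculation with PUCCRT was done 1 day after or 3 days before application. Once disease was fully expressed on controls, the acropetal disease-free zone was measured as percent of line-to-tip distance.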

[2] = 24 h, 1 Day Protectant Mobility, read-out: Dropline Mobility Test PUCCRT 1DPM
[3] = 72 h, 3 Day Curative Mobility, read-out: Dropline Mobility Test PUCCRT 3DCM

| Structure (SMILES) | Disease Control PHAKPA 1DP (Phakopsora pachyrhizi) | Disease Control PHAKPA 3DC (Phakopsora pachyrhizi) | Disease Control RHYNSE 1 DP (Rhyncosporium secalis) | pest or weed control at 1 µg/leaf [1, 2] | pest or weed control at 1 µg/leaf [1, 3] |
| --- | --- | --- | --- | --- | --- |
| CCCO[C@H]1COC[C@H](NC(=O)c2nccc(OC)c2OCOC(C)=O)C(=O)O[C@@H](C)[C@@H]1Oc1ccccc1 [Compound 221] | A (80-100) | A (80-100) | A (80-100) | – | – |
| COc1ccnc(C(=O)N[C@H]2COC[C@H](Oc3ccc(F)cc3)[C@@H](Oc3ccc(F)cc3)[C@H](C)OC2=O)c1OC(C)=O [Compound 229, 2-(((3S,7S,8S,9S)-7,8-bis(4-fluorophenoxy)-9-methyl-2-oxo-1,5-dioxonan-3-yl)carbamoyl)-4-methoxypyridin-3-yl acetate] | – | – | A (80-100) | – | – |
| CCC(C)(C)O[C@H]1COC[C@H](NC(=O)c2nccc(OC)c2OCOC(C)=O)C(=O)O[C@@H](C)[C@@H]1OCC(C)C [Compound 78] | A (80-100) | – | – | 0 to 80% | 0 to 80% |
| COc1ccnc(C(=O)N[C@H]2COC[C@H](OC)[C@@H](OC)[C@H](C)OC2=O)c1OCOC(C)=O [Compound 65] | – | – | – | 0 to 80% | 0 to 80% |
| COc1ccnc(C(=O)N[C@H]2COC[C@H](Oc3ccccc3)[C@@H](Oc3ccccc3)[C@H](C)OC2=O)c1OCOC(C)=O [Compound 84] | A (80-100) | A (80-100) | A (80-100) | 80 to 100% | – |
| CCCO[C@H]1[C@H](C)OC(=O)[C@@H](NC(=O)c2nccc(OC)c2OCOC(C)=O)COC[C@@H]1Oc1ccccc1 [Compound 222] | A (80-100) | A (80-100) | A (80-100) | – | – |
| COc1ccnc(C(=O)N[C@H]2COC[C@H](OCC(C)C)[C@@H](OCC(C)C)[C@H](C)OC2=O)c1OCOC(C)=O [Compound 3, (2-((3S,7S,8S,9S)-7,8-diisobutoxy-9-methyl-2-oxo-1,5-dioxonan-3-ylcarbamoyl)-4-methoxypyridin-3-yloxy)methyl] | A (80-100) | – | – | 80 to 100% | 80 to 100% |
| COc1ccnc(C(=O)N[C@H]2COC[C@H](OCC(C)C)[C@@H](OC3CCCCC3)[C@H](C)OC2=O)c1OCOC(C)=O [Compound 77] | B (More than 0-Less than 80) | – | – | 80 to 100% | 0 to 80% |
| COc1ccnc(C(=O)N[C@H]2COC[C@H](Oc3ccccc3)[C@@H](OCC(C)C)[C@H](C)OC2=O)c1OCOC(C)=O [Compound 86] | A (80-100) | A (80-100) | – | 80 to 100% | 0 to 80% |
| COc1ccnc(C(=O)NC2COC[C@H](OCc3ccccc3)[C@@H](OCc3ccccc3)[C@H](C)OC2=O)c1OCOC(C)=O (stereo partly drawn) [Compound 12] | – | – | – | 0 to 80% | 0 to 80% |
| COc1ccnc(C(=O)N[C@H]2COC[C@H](OCCCC(F)(F)F)[C@@H](OCCCC(F)(F)F)[C@H](C)OC2=O)c1OCOC(C)=O [Compound 68] | – | – | – | 0 to 80% | 0 to 80% |
| COc1ccnc(C(=O)N[C@H]2COC[C@H](OCCCc3ccccc3)[C@@H](OCCCc3ccccc3)[C@H](C)OC2=O)c1OCOC(C)=O [Compound 60] | – | – | – | 0 to 80% | – |
| COc1ccnc(C(=O)N[C@H]2COC[C@H](OCC(C)C)[C@@H](OCC(C)C)[C@H](C)OC2=O)c1OCOC(=O)C(C)C [Compound 2] | – | – | – | 80 to 100% | 80 to 100% |
| COc1ccnc(C(=O)N[C@H]2COC[C@H](Oc3ccc(F)cc3)[C@@H](Oc3ccc(F)cc3)[C@H](C)OC2=O)c1OCOC(C)=O [Compound 231] | – | – | A (80-100) | – | – |
| COc1ccnc(C(=O)N[C@H]2COC[C@H](OCC(C)C)[C@@H](Oc3ccccc3)[C@H](C)OC2=O)c1OCOC(C)=O [Compound 85] | – | – | – | 80 to 100% | 80 to 100% |

Reference: patent US9144239B2, “Macrocyclic picolinamides as fungicides” (DOW AGROSCIENCES LLC, priority 2012, dated 2015)
